Reference: publication PMC2116148 (The Journal of Cell Biology, 1990)

How the values were obtained:
Type in all cases: cell-based, mouse
[1] = system: K1735 M4 murine melanoma cell line; test: Cell adhesion and spreading assay on peptide- or protein-coated Immulon 1 plates
[2] = system: M4 melanoma cells; settings: even at the highest concentrations tested (Fig. 7, up to 500 μg/ml)
[3] = system: M4 melanoma cells; settings: filters coated with type IV collagen; soluble control peptide (Fig. 3c)

Substance | melanoma cell spreading compared with peptide IV-H1 ([1]; all peptide concentrations (5-500 μg/ml), all time points (20-90 min) (Fig. 6)) | melanoma cell adhesion on alanyl-substituted peptide compared with peptide IV-H1 ([1]; coated surfaces, up to 500 μg/ml (Fig. 5)) | cell motility through coated filters [2] | promotion of melanoma cell adhesion or spreading ([1]; control peptide, coated surface) | effect on type IV collagen-mediated cell motility [3]
GVKGDKGNAGWAGAA(Y) [peptide IV-H1A] | decreased ability to spread | nearly the same extent | not observed | – | –
GVPGKDGQAGQPGQP(Y) [peptide 17] | – | – | – | does not promote | no effect
